Literature values as cited in patent US20260373193A1, “CARCINOGENESIS REDUCTION WITH PENTAAZA MACROCYLIC RING COMPLEX” (GALERA LABS, LLC, priority 2023, published 2026).

How the values were obtained:
[1] = test system: acute and sub-chronic radiation damage; platinum therapy kidney damage; details: mucositis, pulmonary pneumonitis and fibrosis, liver damage; cited from earlier work
established tumors = details: cited from earlier work
[2] = test system: collagen-induced arthritis; details: rat collagen-induced arthritis; cited from earlier work
[3] = test system: radiation-induced oral mucositis; details: hamster; cited from earlier work
radiation damage = details: adult mice; cited from earlier work
colon of rats = details: experimental colitis; cited from earlier work
inflammation = details: rat; cited from earlier work

Row | SMILES | overt acute and sub-chronic radiation damage; platinum therapy kidney damage [1] | efficacy of radiation and other therapies (established tumors) | joint disease [2] | radiation-induced oral mucositis [3] | radiation damage, lethal total body irradiation (radiation damage) | injury to the colon (colon of rats) | inflammation (inflammation)
1 | [Cl-].[Cl-].[Mn+2].c1cc2nc(c1)CN[C@@H]1CCCC[C@H]1NCCN[C@@H]1CCCC[C@H]1NC2 [GC4403] | reduce overt acute and sub-chronic radiation damage | enhance the efficacy of radiation and other therapies | prevent joint disease | attenuate the radiation damage | attenuate the radiation damage | very significantly reduce the injury to the colon of rats | inhibit inflammation
2 | CCC(=O)[O-].CCC(=O)[O-].[Mn+2].c1cc2nc(c1)CN[C@H]1CCCC[C@@H]1NCCN[C@H]1CCCC[C@@H]1NC2 [GC4711] | reduce overt acute and sub-chronic radiation damage | enhance the efficacy of radiation and other therapies |  |  |  |  | 
